Common to all, as to assay: DTP human tumour cell line panel, 48 h
Assay [1] has as its system A498 renal.
Assay [2] has as its system EKVX NSCLC.
For assay [3], the system named is SK-MEL-5 melanoma.
For assay [4], the system named is 786-0 renal.
For assay [5], the system named is SK-OV-3 ovarian.
The subject of assay [6] is SF-539 CNS.
The subject of assay [7] is HCC-2998 colon.
For assay [8], the system named is A549 NSCLC.
For assay [9], the system named is HL-60(TB) leukemia.
For assay [10], the system named is COLO 205 colon.
Assay [11] deals with CCRF-CEM leukemia.
The test system of assay [12] is HCT-15 colon.
Assay [13] deals with TK-10 renal.
For assay [14], the system named is CAKI-1 renal.
The subject of assay [15] is NCI-H460 lung.
The subject of assay [16] is DU-145 prostate.

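Each compound was tested at five concentrations against cells in 96-well plates for 48 hours. TGI denotes the concentration required for complete inhibition of growth.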

Take `CC(=O)c1ccccc1NC(=O)C(=O)C(C(=O)c1ccccc1-c1ccccc1)C1OC(=O)c2ccccc21` (stereo unspecified): the TGI – broadly, the concentration at which net growth stops – was 38.2 µM in assay [1]; 65 µM in assay [2]; 33.8 µM in assay [3]; 34.3 µM in assay [4]; over 100 µM in assay [5]; 37.2 µM in assay [6]. The TGI in assay [7] is 30.9 µM; in [8] it was 80.4 µM; in assay [9] it was 81.2 µM; in [10], 46.1 µM; in assay [11], over 100 µM; in assay [12], 34.9 µM. The figures for the TGI in assay [13], in assay [14] and in [15] were 32 µM, over 100 µM and 35.3 µM, respectively.
Consider `CC1=NN2C(c3ccc([N+](=O)[O-])cc3)=CSC2=NC(C)(C)C1`, for which the TGI in assay [1], in assay [2], in [3], in assay [4], in assay [5] and in assay [6] was over 100 µM each time. In addition, the TGI in assay [7], in [8], in assay [9], in assay [10], in [11] and in assay [12] was over 100 µM throughout. For the same compound, the concentration for total growth inhibition (TGI) in assay [13] and in [15] was over 100 µM in each case.
As for `C[C@]12CC[C@H](O)CC1=CC[C@@H]1C2CC[C@]2(C)C(=O)NC(=O)CC12` (stereo partly specified), the TGI in assay [1], in assay [2], in assay [3], in [4], in assay [5] and in assay [6] was over 100 µM in each case. The TGI in [7], in assay [8], in assay [9], in assay [10], in assay [11] and in assay [12] was over 100 µM in each case. For the same compound, the TGI in [13], in assay [14] and in [15] was over 100 µM each time.
As for `COc1cc([C@@H]2c3cc4c(cc3[C@@H](OC(=O)c3cccc(N)c3)C3COC(=O)[C@@H]32)OCO4)cc(OC)c1O` (stereo partly specified), the total growth inhibition concentration (TGI) was 16.6 µM in [1]; over 100 µM in assay [2]; 14 µM in assay [3]; 28.9 µM in [4]; over 75.2 µM in assay [5]; 13.8 µM in [6]. Moreover, the TGI was 28.7 µM in assay [7]; 25.9 µM in assay [8]; over 41.2 µM in assay [9]; over 45.6 µM in assay [10]; over 43 µM in assay [11]; over 52.6 µM in assay [12]. For the same compound, the TGI in [13] was over 100 µM; in [14] it was 29.6 µM; in assay [15], 20.4 µM.
As for `CCN(CC)C(=S)SCC(=O)Nc1nc2c(s1)CCCC2`, the TGI in assay [1] was over 100 µM; in [3], 49.7 µM; in [4], over 100 µM; in assay [5] it was over 100 µM; in assay [6] it was over 100 µM; in [7] it was over 100 µM. Moreover, the TGI in assay [8] is over 100 µM; in [9], 47.6 µM; in [10], over 100 µM; in assay [11], over 100 µM; in assay [12] it was over 100 µM; in [13], over 100 µM. The compound also yielded a TGI in assay [15] of over 100 µM.
`C=CCCCN1CCCC(C)C1=S` (stereo unspecified): the TGI in assay [1], in assay [2], in assay [3], in assay [4], in assay [5] and in [6] was over 100 µM each time. Also, the TGI in assay [7], in [8], in assay [9], in assay [10], in assay [11] and in assay [12] was over 100 µM in each case. Also, the TGI in assay [13] and in assay [15] was over 100 µM in each case.
For `CN(C)c1ccc(/C=N/c2nc3cc4sc(/N=C/c5ccc(N(C)C)cc5)nc4cc3s2)cc1`, the concentration for total growth inhibition (TGI) in [1] was over 100 µM; in [2] it was over 100 µM; in assay [3], over 100 µM; in [4], over 100 µM; in [5], over 100 µM; in [16], 99.1 µM. The TGI in assay [6], in [8], in assay [9], in assay [10], in [11] and in [12] was over 100 µM throughout. For the same compound, the TGI in [13], in assay [14] and in assay [15] was over 100 µM in each case.
For the compound `Cn1c(=O)cc2[nH]c3ccccc3n2c1=O`, the TGI was over 100 µM in assay [1]; over 100 µM in assay [2]; over 100 µM in assay [3]; 62.9 µM in [4]; over 100 µM in assay [5]; 46.3 µM in assay [6]. Besides, the TGI was over 100 µM in assay [7]; over 100 µM in assay [8]; over 100 µM in assay [9]; 29.9 µM in [10]; over 100 µM in [11]; over 100 µM in assay [12]. Moreover, the TGI in assay [13], in assay [14] and in [15] was over 100 µM in each case.
As to `O=CC1C(Cl)=Nc2nc3ccccc3n2C1c1ccccc1` (stereo unspecified), the TGI in assay [1] worked out at 23 µM; in assay [2], 64.6 µM; in assay [3], 45.5 µM; in assay [4], 29.5 µM; in [16], 31.4 µM; in assay [6], 34 µM. For the same compound, the TGI in assay [7] amounted to 34.8 µM; in assay [8] it was 76.6 µM; in assay [9], 58.3 µM; in assay [10], 58.9 µM; in [11], 63.1 µM; in [12], 30.9 µM. Also, the TGI in assay [13] is 51.4 µM; in assay [14], 46.6 µM; in assay [15] it was over 100 µM.

The values are drawn from PubChem BioAssay (NCI).
